Data reported in US5594030A, “Controlled release pharmaceutical compositions based on one or more pharmaceutically acceptable salts of gamma hydroxy-butyric acid” (Laboratorio Farmaceutico C.T. S.r.l., priority 1993, dated 1997).
Where a name gives a salt, the structure may show the parent alone. Read-outs that look alike come from different tables or passages of the source.

Legend:
[1] = fraction of unbound drug (dialysis); assay type: in vitro ADME; conditions: predialysis concentration of 25 μg/ml; read-out: fu (fraction of unbound drug)
Method: ^c determined at a predialysis concentration of 25 μg/ml
peak, tmax absorption time to the peak, fu fraction of unbound

[2] = GHB average pharmacokinetic parameters after oral administration of different doses (immediate release) to 8 healthy volunteers; assay type: in vivo, human (healthy volunteers); conditions: for Tmax / CL/F / MRT / half-life: human, plasma; for CL/F: read-out: CLo (oral clearance); for MRT: read-out: MRT (average residence time) (converted); for AUC: average (SD); for absorption: result in words, immediate release / aqueous liquid solutions
Description: GHB Average pharmacokinetic parameters after
administration of different doses to 8 healthy volunteers

[3] = system: enzymes having the --SH group; conditions: result in words; cited from earlier work
[4] = cited from earlier work
[5] = In vitro dissolution test (paddle test); assay type: physicochemical; conditions: aqueous liquid solutions / formulations on the market; instantaneous
Method: The evaluation test in vitro is carried out with a dissolution test consistent with the apparatus described in the European Pharmacopoeia 2° ed. or UPS XXII ed. ("paddle test"). The dosage, evaluated in the time after 1, 2, 3, 4, 6 and 8 hours, is carried out with 1N hydrochloric acid, taking a known amount from the dissolution medium.
medium: distilled H20 900 ml.
Data obtained are the following (expressed as GHBNa percentage with respect to the total tablet content): […]

[6] = oral 25 mg/kg, normalized at 12.5 mg/kg
[7] = oral 50 mg/kg, normalized at 12.5 mg/kg

Which fraction unbound [1] does the source give for `O=C(O)CCCO` [GHB, gamma hydroxy butyric acid] here?
Its fraction unbound is 0.99.

What about the Tmax ([2]; oral 12.5 mg/kg, average value (range), read-out: tmax (absorption time to the peak) (converted)) of the same compound?
The Tmax was 25 min.

What about the CL/F ([2]; oral 12.5 mg/kg) of the same compound?
The CL/F was 14 mL/min/kg.

What about the MRT ([2]; oral 12.5 mg/kg) of the same compound?
Its MRT is 45 min.

And the half-life ([2]; oral 12.5 mg/kg, read-out: t^1/2 z (final halflife time))?
Its half-life is 20 min.

And the Tmax ([2]; oral 25 mg/kg, average value (range), read-out: tmax (absorption time to the peak) (converted))?
Its Tmax is 30 min.

What about the CL/F ([2]; oral 25 mg/kg) of the same compound?
The CL/F was 9 mL/min/kg.

And the MRT ([2]; oral 25 mg/kg)?
Its MRT is 53 min.

And the half-life ([2]; oral 25 mg/kg, read-out: t^1/2 z (final halflife time))?
The half-life was 22 min.

What about the Tmax ([2]; oral 50 mg/kg, average value (range), read-out: tmax (absorption time to the peak) (converted)) of the same compound?
The Tmax was 45 min.

What about the CL/F ([2]; oral 50 mg/kg) of the same compound?
Its CL/F is 7 mL/min/kg.

What about the MRT ([2]; oral 50 mg/kg) of the same compound?
The MRT was 70 min.

And the half-life ([2]; oral 50 mg/kg, read-out: t^1/2 z (final halflife time))?
Its half-life is 23 min.

And the Cmax ([2]; oral 12.5 mg/kg)?
Its Cmax is 23 (9) μg/ml.

What about the AUC ([2]; oral 12.5 mg/kg, 8 healthy volunteers) of the same compound?
The AUC was 905 (443) μg/ml min.

And the Cmax [2, 6]?
The Cmax was 23 (11) μg/ml.

And the AUC [2, 6]?
Its AUC is 1271 (560) μg/ml min.

What about the Cmax [2, 7] of the same compound?
Its Cmax is 20 (7) μg/ml.

And the AUC [2, 7]?
The AUC was 1565 (548) μg/ml min.

For `CCN(CC)C(=S)SSC(=S)N(CC)CC` [Disulfiram], which enzyme inhibition [3] is on record?
The enzyme inhibition was “alters the activity of all enzymes having the --SH group”.

What about the toxicity ([4]; Disulfiram by itself, therapeutical doses) of the same compound?
The toxicity was “scarcely toxic”.

What about the “blood acetaldehyde concentration vs alcohol dose alone” value ([4]; alcohol administered after Disulfiram pretreatment) of the same compound?
The value was “five to ten times higher”.

And the severe events occurred ([4]; as a consequence of Disulfiram treatment)?
The severe events occurred was “depression, myocardial infarction, sudden and unexplained fatalities”.

And the “side effects (may cause)” value ([4]; in vivo)?
Its value is “acneiform eruptions, allergic dermatitis, urticaria, lassitude, fatigue, tremor, restlessnes, reduced sexual potency, gastric or digestive disturbances”.

Which “release of the active substance” value [5] does the source give for `O=C(O)CCCO` [GHBNa, sodium salt of gamma hydroxy butyric acid] here?
Its value is 100%.

And the Tmax ([2]; po, about, summary of table 1 and FIG. 1, read-out: maximum peak after the administration)?
Its Tmax is 30 to 45 min.

And the half-life ([2]; po, summary of table 1 and FIG. 1, read-out: half life)?
The half-life was 20 to 25 min.

What about the absorption [2] of the same compound?
The absorption was “rapidly absorbed”.

And the absorption ([2]; listed as sodium gamma hydroxy butyrate)?
Its absorption is “absorbed quickly”.

What about the elimination time ([2]; summary of table 1 and FIG. 1) of the same compound?
Its elimination time is 4 to 5 h.
